From patent EP4603105A1, “PHARMACEUTICAL COMPOSITION CONTAINING CYCLIC COMPOUND HAVING SELECTIVE KRAS INHIBITORY EFFECT AGAINST HRAS AND NRAS” (CHUGAI SEIYAKU KABUSHIKI KAISHA, priority 2022, dated 2024)
*1 amine or outer side, *2 acyl side, *3 side chain or, on linkers, in order; H or OH if unused. Where a SMILES comes first, the peptide text is derived from it. Bridges are numbered along the chain shown (N, C = ends). [ ]: non-standard residue; d: D form. The star is where a group is joined. hPhe(3-Cl-4-CF3) = N[C@@H](CCc1ccc(C(F)(F)F)c(Cl)c1)C(=O)O; X40 = Cc1ccc(C[C@@H](C(=O)[*:2])N(CC(C)C)[*:1])cc1; NEtPhe(4-Me) = CCN[C@@H](Cc1ccc(C)cc1)C(=O)O; NMeAbu(4,4,4-F3) = CN[C@@H](CC(F)(F)F)C(=O)O; NMeGly(cPent) = CN[C@H](C(=O)O)C1CCCC1; NMeD = CN[C@@H](CC(=O)O)C(=O)O; NMeL = CN[C@@H](CC(C)C)C(=O)O; Morpholide = C1CN(*)CCO1; NMeA = CN[C@@H](C)C(=O)O; Ac5c = NC1(C(=O)O)CCCC1; Aze = O=C(O)[C@@H]1CCN1; Sar = CNCC(=O)O

Assays:
[1] = biological target: GDP-bound NRAS wild-type protein (Homo sapiens, UniProt P01111); assay: Binding to NRAS by surface plasmon resonance (SPR), KD and KD ratio to KRAS
Experimental: (§1) Surface plasmon resonance was used to analyze the binding affinity of compounds for KRAS, NRAS, and HRAS. The apparatus used was Biacore 8K, 8K+, or T200 (GE Healthcare), and the running buffer used was HBS (10 mM HEPES-NaOH, 150 mM NaCl, pH 7.4) containing 1 mM DTT, 10 mM MgCl2, 0.01% Tween 20, 10 µM GDP, and 4% DMSO.
(§2) Biotinylated Avi-tag fusion KRAS, NRAS, and HRAS proteins were expressed in E. coli BL21 (DE3) strains, and after cells were homogenized, they were purified using Streptavidin Mutein Matrix and Superdex 75. After purification, GDP-loaded KRAS, NRAS, and HRAS proteins were immobilized on the surface of Sensor Chip CAP (Cytiva) coated with Biotin CAPture Reagent in an immobilization amount of about 100 to 300 RU. Binding of each compound was evaluated by the Single Cycle Kinetics method, and a running buffer or a compound solution was added to the RAS protein non-immobilized surface and the immobilized surface to obtain a binding response. The flow rate was set to 100 µL/min, and in the compound-adding cycle, compound solutions having different concentrations were intermittently added for 75 seconds each, starting from a low concentration. […] In the blank cycle, a running buffer was intermittently added and not the compound solution. The Biotin CAPture Reagent and RAS proteins were immobilized for each cycle, and at the end of each cycle, the sensor chip was regenerated by the regeneration solution appended to the Biotin CAPture Kit (Cytiva). Measurement was carried out at 30°C.
(§3) The resulting sensorgram was subjected to curve fitting based on a 1:1 binding model on Biacore Insight Evaluation Software or T200 Evaluation Software, and thereby the dissociation constant KD of each compound with respect to KRAS, NRAS, and HRAS was determined. […] Blank indicates a compound from which the KD value with respect to NRAS or HRAS was not obtained.

HRAS wild-type protein = HRAS wild-type protein (Homo sapiens, UniProt P01112); assay: Binding to HRAS by surface plasmon resonance (SPR), KD and KD ratio to KRAS
Experimental: as §1, §2, §3

[2] = test system: human lung cancer strain NCI-H441; assay type: cell-based
In short: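 Readout: […] after the ATP-based reagent. Compound: serial dilutions in dimethyl sulfoxide.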

[3] = ratio of the KD value with respect to GDP-bound NRAS wild-type protein to the KD value with respect to KRAS
[4] = ratio of the KD value with respect to HRAS wild-type protein to the KD value with respect to KRAS
[5] = ratio of KD for GDP-bound NRAS wild-type protein to KD for KRAS
[6] = ratio of KD for HRAS wild-type protein to KD for KRAS
[7] = ratio of KD value for GDP-bound NRAS wild-type protein to KD value for KRAS (SPR)
[8] = ratio of KD value for HRAS wild-type protein to KD value for KRAS (SPR)

Chain of HRAS wild-type protein (P01112 whole entry): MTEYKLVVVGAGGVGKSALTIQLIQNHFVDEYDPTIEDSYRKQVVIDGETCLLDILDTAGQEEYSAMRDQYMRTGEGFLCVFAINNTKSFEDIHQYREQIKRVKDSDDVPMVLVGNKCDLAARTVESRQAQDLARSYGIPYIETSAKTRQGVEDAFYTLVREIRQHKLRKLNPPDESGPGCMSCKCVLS
Chain of GDP-bound NRAS wild-type protein (P01111 whole entry): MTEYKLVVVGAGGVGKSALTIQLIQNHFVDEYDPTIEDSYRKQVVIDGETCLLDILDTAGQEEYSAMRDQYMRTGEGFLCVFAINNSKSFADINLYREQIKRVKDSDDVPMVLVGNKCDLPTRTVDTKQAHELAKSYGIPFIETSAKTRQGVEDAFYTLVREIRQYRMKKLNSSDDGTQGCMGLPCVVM

Row | SMILES | NRAS /KRAS [1, 3] | HRAS /KRAS (HRAS wild-type protein; [4]) | IC50 [2] | NRAS /KRAS [1, 5] | HRAS /KRAS (HRAS wild-type protein; [6]) | NRAS /KRAS [1, 7] | HRAS /KRAS (HRAS wild-type protein; [8])
1 | CCO[C@@H]1C[C@H]2C(=O)NC3(CCC3)C(=O)N(C)[C@@H](C3CCCC3)C(=O)N(C)[C@H](C(=O)N(C)C)CC(=O)N(C)[C@@H](C)C(=O)N[C@@H]([C@H](C)CC)C(=O)N(C)CC(=O)N(C)[C@H]3CCCCN(C3=O)[C@@H](Cc3ccc(C(F)(F)F)cc3)C(=O)N(C)CC(=O)N[C@@H](CCc3cc(F)c(C(F)(F)F)c(F)c3)C(=O)N2C1 [PP0730] | C (A compound having a KD ratio of 0.1 or more and less than 3 is denoted as C) | C (A compound having a KD ratio of 0.1 or more and less than 3 is denoted as C) | 29.6 nM | – | – | – | –
2 | CCO[C@@H]1C[C@H]2C(=O)NC3(CC(C)(C)C3)C(=O)N(C)[C@@H](C(CC)CC)C(=O)N(C)[C@H](C(=O)N(C)C)CC(=O)N(C)[C@@H](COC)C(=O)N[C@@H]([C@@H](C)CC)C(=O)N(C)CC(=O)N(C)[C@H]3C/C=C\CCN(C3=O)[C@@H](Cc3ccc(C(F)(F)F)cc3)C(=O)N(C)CC(=O)N[C@@H](CCc3ccc(C(F)(F)F)c(Cl)c3)C(=O)N2C1 [PP2126] | A (a compound having 10 or more and less than 20 is denoted as A) | B (a compound having 3 or more and less than 10 is denoted as B) | 13.4 nM | – | – | – | –
3 | CCCO[C@@H]1C[C@H]2C(=O)NC3(CC(C)(C)C3)C(=O)N(C)[C@@H](C3CCCC3)C(=O)N(C)[C@H](C(=O)N3CCCC3)CC(=O)N(C)[C@H]3CCCc4ccc(cc4)C[C@@H](C(=O)N(C)CC(=O)N[C@@H](CCc4ccc(C(F)(F)F)c(OC)c4)C(=O)N2C1)N1CC/C=C\C[C@@H](C1=O)N(C)C(=O)CN(C)C(=O)[C@H]([C@@H](C)CC)NC3=O [PP3065] | – | – | 27.3 nM | A (a compound having 10 or more and less than 20 is denoted as A) | B (a compound having 3 or more and less than 10 is denoted as B) | – | –
4 | CC[C@H](C)[C@@H]1NC(=O)[C@H](CC)N(C)C(=O)C[C@@H](C(=O)N(C)C)N(C)C(=O)[C@H](C2CCCC2)N(C)C(=O)C2(CCC2)NC(=O)[C@@H]2CCCN2C(=O)[C@H](CCc2cc(C)c(Cl)c(C)c2)NC(=O)CN(C)C(=O)[C@H](Cc2ccc(C(F)(F)F)cc2)N2CC/C=C\C[C@@H](C2=O)N(C)C(=O)CN(C)C1=O [PP1822] | – | – | 107 nM | – | – | A (a compound having 10 or more and less than 20 is denoted as A) | B (a compound having 3 or more and less than 10 is denoted as B)
5 | CCCC[C@H]1C(=O)N[C@@H]([C@@H](C)CC)C(=O)N(C)CC(=O)N(C)[C@H]2C/C=C\CCN(C2=O)[C@@H](Cc2ccc(C(F)(F)F)cc2)C(=O)N(C)CC(=O)N[C@@H](CCc2cc(F)c(C(F)(F)F)c(F)c2)C(=O)N2C[C@H](OCC)C[C@H]2C(=O)NC2(CCC2)C(=O)N(C)[C@@H](C2CCCC2)C(=O)N(C)[C@H](C(=O)N(C)CCC)CC(=O)N1C [PP1704] | – | – | 10.3 nM | – | – | A (a compound having 10 or more and less than 20 is denoted as A) | A (a compound having 10 or more and less than 20 is denoted as A)
6 | CCO[C@@H]1C[C@H]2C(=O)NC3(CCC3)C(=O)N(C)[C@@H](C3CCCC3)C(=O)N(C)[C@H](C(=O)N(C)C)CC(=O)N(C)[C@@H](CC)C(=O)N[C@@H]([C@@H](C)CC)C(=O)N3CC[C@H]3C(=O)N(C)[C@H]3C[C@@H](C)CCN(C3=O)[C@@H](Cc3ccc(C(F)(F)F)cc3)C(=O)N(C)CC(=O)N[C@@H](CCc3cc(F)c(C(F)(F)F)c(F)c3)C(=O)N2C1 [PP1021] | – | – | 14 nM | C (A compound having a KD ratio of 0.1 or more and less than 3 is denoted as C) | B (a compound having 3 or more and less than 10 is denoted as B) | – | –
7 | CC[C@H](C)[C@@H]1NC(=O)[C@H](COC)N(C)C(=O)C[C@@H](C(=O)N2CCOCC2)N(C)C(=O)[C@H](C2CCCC2)N(C)C(=O)C2(CCC2)NC(=O)[C@@H]2CCCN2C(=O)[C@H](CCc2cc(F)c(C(F)(F)F)c(F)c2)NC(=O)CN(C)C(=O)[C@H](Cc2ccc(C(F)(F)F)cc2)N2CCCCC[C@@H](C2=O)N(C)C(=O)[C@@H]2CCN2C1=O [PP0865] | – | – | 767 nM | B (a compound having 3 or more and less than 10 is denoted as B) | B (a compound having 3 or more and less than 10 is denoted as B) | – | –
8 | CC[C@H](C)[C@@H]1NC(=O)[C@H](CC(C)C)N(C)C(=O)C[C@@H](C(=O)N2CCOCC2)N(C)C(=O)[C@H](CC(C)C)N(C)C(=O)C2(CCCC2)NC(=O)[C@@H]2CCCN2C(=O)[C@H](CCc2ccc(C(F)(F)F)c(Cl)c2)NC(=O)CN(C)C(=O)[C@H](Cc2ccc(C)cc2)N(CC)C(=O)CN(C)C(=O)CN(C)C1=O [PP0045] ([NMeL]I[Sar][Sar][NEtPhe(4-Me)][Sar][hPhe(3-Cl-4-CF3)]P[Ac5c][NMeL][NMeD]-Morpholide; lactam N-11) | – | – | 292 nM | C (A compound having a KD ratio of 0.1 or more and less than 3 is denoted as C) | C (A compound having a KD ratio of 0.1 or more and less than 3 is denoted as C) | – | –
9 | CC[C@H](C)[C@@H]1NC(=O)[C@H](CC(C)C)N(C)C(=O)C[C@@H](C(=O)N2CCOCC2)N(C)C(=O)[C@H](C2CCCC2)N(C)C(=O)C2(CCCC2)NC(=O)[C@@H]2CCCN2C(=O)[C@H](CCc2ccc(C(F)(F)F)c(Cl)c2)NC(=O)CN(C)C(=O)[C@H](Cc2ccc(C)cc2)N(CC(C)C)C(=O)[C@@H]2CCN2C(=O)[C@H](C)N(C)C1=O [PP0056] ([NMeL]I[NMeA][Aze][X40][Sar][hPhe(3-Cl-4-CF3)]P[Ac5c][NMeGly(cPent)][NMeD]-Morpholide; lactam N-11) | – | – | 49.6 nM | C (A compound having a KD ratio of 0.1 or more and less than 3 is denoted as C) | B (a compound having 3 or more and less than 10 is denoted as B) | – | –
10 | CC[C@H](C)[C@@H]1NC(=O)[C@H](CC(F)(F)F)N(C)C(=O)C[C@@H](C(=O)N2CCOCC2)N(C)C(=O)[C@H](C2CCCC2)N(C)C(=O)C2(CCCC2)NC(=O)[C@@H]2CCCN2C(=O)[C@H](CCc2ccc(C(F)(F)F)c(Cl)c2)NC(=O)CN(C)C(=O)[C@H](Cc2ccc(C)cc2)N(CC)C(=O)CN(C)C(=O)CN(C)C1=O [PP0032] ([NMeAbu(4,4,4-F3)]I[Sar][Sar][NEtPhe(4-Me)][Sar][hPhe(3-Cl-4-CF3)]P[Ac5c][NMeGly(cPent)][NMeD]-Morpholide; lactam N-11) | – | – | 26.9 nM | C (A compound having a KD ratio of 0.1 or more and less than 3 is denoted as C) | C (A compound having a KD ratio of 0.1 or more and less than 3 is denoted as C) | – | –
11 | CC[C@H](C)[C@@H]1NC(=O)[C@H](CC)N(C)C(=O)C[C@@H](C(=O)N(C)CC)N(C)C(=O)[C@H](C2CCCC2)N(C)C(=O)C2(CCC2)NC(=O)[C@@H]2C[C@@H](C)CN2C(=O)[C@H](CCc2ccc(C(F)(F)F)c(OC)c2)NC(=O)CN(C)C(=O)[C@H](Cc2ccc(C)cc2)N2CC/C=C\C[C@@H](C2=O)N(C)C(=O)CN(C)C1=O [PP1855] | – | – | 17.7 nM | – | – | AA (a compound having 20 or more is denoted as AA) | A (a compound having 10 or more and less than 20 is denoted as A)
12 | CCC[C@H]1C(=O)N[C@@H]([C@@H](C)CC)C(=O)N(C)CC(=O)N(C)[C@H]2C/C=C\CCN(C2=O)[C@@H](Cc2ccc(C)cc2)C(=O)N(C)CC(=O)N[C@@H](CCc2ccc(Cl)c(C(F)(F)F)c2)C(=O)N2C[C@H](OCC)C[C@H]2C(=O)NC2(CC(C)(C)C2)C(=O)N(C)[C@@H](C2CCCC2)C(=O)N(C)[C@H](C(=O)N(C)C)CC(=O)N1C [PP2786] | – | – | 9.8 nM | A (a compound having 10 or more and less than 20 is denoted as A) | A (a compound having 10 or more and less than 20 is denoted as A) | – | –
13 | C#CC[C@H]1C(=O)N[C@@H]([C@@H](C)CC)C(=O)N(C)CC(=O)N(C)[C@H]2C/C=C\CCN(C2=O)[C@@H](Cc2ccc(C(F)(F)F)cc2)C(=O)N(C)CC(=O)N[C@@H](CCc2ccc(C(F)(F)F)c(OC)c2)C(=O)N2CCOC[C@H]2C(=O)NC2(CC(C)(C)C2)C(=O)N(C)[C@@H](C2CCCC2)C(=O)N(C)[C@H](C(=O)N(C)C)CC(=O)N1C [PP2905] | – | – | 35.2 nM | AA (a compound having 20 or more is denoted as AA) | A (a compound having 10 or more and less than 20 is denoted as A) | – | –
14 | CCC[C@H]1C(=O)N[C@@H]([C@@H](C)CC)C(=O)N(C2CC2)CC(=O)N(C)[C@H]2C/C=C\CCN(C2=O)[C@@H](Cc2ccc(C)cc2)C(=O)N(C)CC(=O)N[C@@H](CCc2cc(C)c(C(F)F)c(C)c2)C(=O)N2C[C@H](OCC)C[C@H]2C(=O)NC2(CC(C)(C)C2)C(=O)N(C)[C@@H](C2CCCC2)C(=O)N(C)[C@H](C(=O)N(C)C)CC(=O)N1C [PP2873] | – | – | 128 nM | A (a compound having 10 or more and less than 20 is denoted as A) | A (a compound having 10 or more and less than 20 is denoted as A) | – | –
